Data as given in patent publication US20230158025A1 (UNIVERSITY OF UTAH RESEARCH FOUNDATION, priority 2020, published 2023).
Read-outs that look alike come from different tables or passages of the source.

Assays:
recombinant human GALK1 = recombinant human GALK1 (Homo sapiens, UniProt P51570); assay: hGALK1 biochemical activity assay (Kinase-Glo Plus, ATP depletion)
How it was run: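 Recombinant human or mouse GALK1 (5 nM, with 100 μM galactose, in the added enzyme solution) was run with ATP (35 μM in the substrate solution) in HEPES pH 8.0 buffer. Compounds were tested at 11 1/3-step concentrations from 57.4 μM to 0.97 nM. After 1 h at room temperature, remaining ATP was read by Kinase-Glo Plus luminescence.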

recombinant mouse GALK1 = recombinant mouse GALK1 (Mus musculus, UniProt Q9R0N0); assay: mGALK1 biochemical activity assay (Kinase-Glo Plus, ATP depletion)
Chain of recombinant mouse GALK1 (Q9R0N0 whole entry): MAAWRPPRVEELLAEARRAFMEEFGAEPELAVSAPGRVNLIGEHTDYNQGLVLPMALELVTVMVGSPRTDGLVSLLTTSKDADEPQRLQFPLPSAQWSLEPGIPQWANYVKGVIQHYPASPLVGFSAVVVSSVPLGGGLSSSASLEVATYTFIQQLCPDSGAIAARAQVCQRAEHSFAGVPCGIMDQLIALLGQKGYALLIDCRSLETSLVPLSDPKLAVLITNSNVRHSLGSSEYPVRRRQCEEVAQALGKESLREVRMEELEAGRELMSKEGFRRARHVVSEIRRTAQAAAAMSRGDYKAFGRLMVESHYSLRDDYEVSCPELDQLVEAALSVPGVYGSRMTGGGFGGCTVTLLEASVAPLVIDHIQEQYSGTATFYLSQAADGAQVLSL
How it was run: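 Recombinant GALK1 (5 nM) with 100 μM galactose; GALK1 turnover read as ATP depletion by Kinase-Glo Plus luminescence. Reaction ran 1 h at room temperature before detection reagent was added.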

[1] = aqueous kinetic solubility
[2] = rat microsomal stability (RLM); details: microsomal half-life
[3] = Tables 2-15, 35 μM ATP, 100 μM galactose, 1 h, bracketed figure after some values (e.g. −1.2) is undefined and not reported, read-out: hGALK IC50
[4] = recombinant human GALK1, Kinase-Glo Plus ATP depletion, read-out: hGALK
[5] = Tables 2-15, 35 μM ATP, 100 μM galactose, 1 h, bracketed figure after some values is undefined and not reported, read-out: mGALK IC50
[6] = recombinant mouse GALK1, Kinase-Glo Plus ATP depletion, read-out: mGALK

Chain of recombinant human GALK1 (P51570 whole entry): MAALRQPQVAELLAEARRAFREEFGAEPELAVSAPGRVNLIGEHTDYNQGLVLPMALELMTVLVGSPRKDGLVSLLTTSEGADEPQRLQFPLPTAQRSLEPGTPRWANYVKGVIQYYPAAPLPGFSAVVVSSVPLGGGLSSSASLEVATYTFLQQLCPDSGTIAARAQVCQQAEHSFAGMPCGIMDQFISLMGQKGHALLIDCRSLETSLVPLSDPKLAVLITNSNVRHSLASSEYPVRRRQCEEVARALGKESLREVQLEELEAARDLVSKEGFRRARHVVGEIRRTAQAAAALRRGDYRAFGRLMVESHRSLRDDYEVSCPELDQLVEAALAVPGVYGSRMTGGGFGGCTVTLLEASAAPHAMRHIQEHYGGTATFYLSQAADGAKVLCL

IC50 (recombinant human GALK1; [3]) [µM]	IC50 (recombinant human GALK1; [4]) [µM]	IC50 (recombinant mouse GALK1; [5]) [µM]	IC50 (recombinant mouse GALK1; [6]) [µM]	Sol. [1] [µg/mL]	Metab. Stabil. (m) [2] [m]	Perm. (1 × 10^−6 cm/sec) (PAMPA permeability)	SMILES
	0.39		3.43	>72	>30	101.9 1 × 10^−6 cm/sec	CC1=C(C(=O)NCc2cnn(C)c2)C(c2ccccc2Cl)N=C(Nc2nc3cccc(N)c3o2)N1 (stereo not drawn) [Compound 82, 2-((7-aminobenzo[d]oxazol-2-yl)amino)-4-(2-chlorophenyl)-6-methyl-N-((1-methyl-1H-pyrazol-4-yl)methyl)-1,4-dihydropyrimidine-5-carboxamide]
3.43	3.43	21.7	21.7	>78	>30	<1 1 × 10^−6 cm/sec	CC1=C(C(=O)Nc2cc(C(=O)O)ccn2)[C@@H](c2ccc(C)cc2Cl)N=C(Nc2nc3cccc(N)c3o2)N1 [Compound 84, (S)-2-(2-((7-aminobenzo[d]oxazol-2-yl)amino)-4-(2-chloro-4-methylphenyl)-6-methyl-1,4-dihydropyrimidine-5-carboxamido)isonicotinic acid]
0.09	0.09	1.41	1.41	>53	>30	<1 1 × 10^−6 cm/sec	CC1=C(C(=O)Nc2cc(C(=O)O)ccn2)[C@H](c2ccc(C)cc2Cl)N=C(Nc2nc3cccc(N)c3o2)N1 [Compound 85, (R)-2-(2-((7-aminobenzo[d]oxazol-2-yl)amino)-4-(2-chloro-4-methylphenyl)-6-methyl-1,4-dihydropyrimidine-5-carboxamido)isonicotinic acid]
5.44	5.44	34.3	34.3	>81	>30	<1 1 × 10^−6 cm/sec	COc1ccc([C@H]2N=C(Nc3nc4cccc(N)c4o3)NC(C)=C2C(=O)Nc2cc(C(=O)O)ccn2)c(Cl)c1 [Compound 86, (S)-2-(2-((7-aminobenzo[d]oxazol-2-yl)amino)-4-(2-chloro-4-methoxyphenyl)-6-methyl-1,4-dihydropyrimidine-5-carboxamido)isonicotinic acid]
0.15	0.15	2.43	2.43	>81	>30	<1 1 × 10^−6 cm/sec	COc1ccc([C@@H]2N=C(Nc3nc4cccc(N)c4o3)NC(C)=C2C(=O)Nc2cc(C(=O)O)ccn2)c(Cl)c1 [Compound 87, (R)-2-(2-((7-aminobenzo[d]oxazol-2-yl)amino)-4-(2-chloro-4-methoxyphenyl)-6-methyl-1,4-dihydropyrimidine-5-carboxamido)isonicotinic acid]
	1.37		9.68	<1	>30	<1 1 × 10^−6 cm/sec	CC1=C(C(=O)Nc2cc(-c3nn[nH]n3)ccn2)C(c2ccc(C)cc2Cl)N=C(Nc2nc3ccc(F)cc3o2)N1 (stereo not drawn) [Compound 88, N-(4-(2H-tetrazol-5-yl)pyridin-2-yl)-4-(2-chloro-4-methylphenyl)-2-((6-fluorobenzo[d]oxazol-2-yl)amino)-6-methyl-1,4-dihydropyrimidine-5-carboxamide]
3.43	3.34	15.3	15.3	4.6	11.7017	179.3 1 × 10^−6 cm/sec	CC1=C(C(=O)Nc2cc(N(C)C)ccn2)C(c2ccc(C)cc2Cl)N=C(Nc2nc3cccc(N)c3o2)N1 (stereo not drawn) [Compound 89, 2-((7-aminobenzo[d]oxazol-2-yl)amino)-4-(2-chloro-4-methylphenyl)-N-(4-(dimethylamino)pyridin-2-yl)-6-methyl-1,4-dihydropyrimidine-5-carboxamide]

Continued, compound first:

SMILES	IC50 (recombinant human GALK1; [3]) [µM]	IC50 (recombinant human GALK1; [4]) [µM]	IC50 (recombinant mouse GALK1; [5]) [µM]	IC50 (recombinant mouse GALK1; [6]) [µM]	Sol. [1] [µg/mL]	Metab. Stabil. (m) [2] [m]	Perm. (1 × 10^−6 cm/sec) (PAMPA permeability)
CC1=C(C(=O)Nc2cc(C(=O)O)ccn2)C(c2ccc(C#N)cc2Cl)N=C(Nc2nc3ccc(F)cc3o2)N1 (stereo not drawn) [Compound 66, 2-(4-(2-chloro-4-cyanophenyl)-2-((6-fluorobenzo[d]oxazol-2-yl)amino)-6-methyl-1,4-dihydropyrimidine-5-carboxamido)isonicotinic acid]	0.61	0.61	3.85	3.85	>81	>30	<1 1 × 10^−6 cm/sec
CCOc1ccc(C2N=C(Nc3nc4ccc(F)cc4o3)NC(C)=C2C(=O)Nc2cc(C(=O)O)ccn2)c(Cl)c1 (stereo not drawn) [Compound 67, 2-(4-(2-chloro-4-ethoxyphenyl)-2-((6-fluorobenzo[d]oxazol-2-yl)amino)-6-methyl-1,4-dihydropyrimidine-5-carboxamido)isonicotinic acid]	0.69	0.69	3.85	3.85	11.3	>30	<1 1 × 10^−6 cm/sec
CC1=C(C(=O)Nc2cc(C(=O)O)ccn2)C(c2ccc(-c3ccc(C(F)(F)F)cc3)cc2Cl)N=C(Nc2nc3ccc(F)cc3o2)N1 (stereo not drawn) [Compound 68, 2-(4-(3-chloro-4′-(trifluoromethyl)-[1,1′-biphenyl]-4-yl)-2-((6-fluorobenzo[d]oxazol-2-yl)amino)-6-methyl-1,4-dihydropyrimidine-5-carboxamido)isonicotinic acid]	7.69	7.69	21.7	21.7	8.1	>30	6.6 1 × 10^−6 cm/sec
CC1=C(C(=O)Nc2cc(C(=O)O)ccn2)C(c2ccc(-c3ccc(C)nc3)cc2Cl)N=C(Nc2nc3ccc(F)cc3o2)N1 (stereo not drawn) [Compound 69, 2-(4-(2-chloro-4-(6-methylpyridin-3-yl)phenyl)-2-((6-fluorobenzo[d]oxazol-2-yl)amino)-6-methyl-1,4-dihydropyrimidine-5-carboxamido)isonicotinic acid]		0.34	1.22	1.22	>90	>30	<1 1 × 10^−6 cm/sec
CC1=C(C(=O)Nc2cc(C(=O)O)ccn2)C(c2ccc(-c3ccc(C(F)(F)F)nc3)cc2Cl)N=C(Nc2nc3ccc(F)cc3o2)N1 (stereo not drawn) [Compound 70, 2-(4-(2-chloro-4-(6-(trifluoromethyl)pyridin-3-yl)phenyl)-2-((6-fluorobenzo[d]oxazol-2-yl)amino)-6-methyl-1,4-dihydropyrimidine-5-carboxamido)isonicotinic acid]	1.21	1.21	3.85	3.85	28.6	>30	<1 1 × 10^−6 cm/sec
CC1=C(C(=O)Nc2cc(C(=O)O)ccn2)C(c2ccc(-c3cnc(C)nc3)cc2Cl)N=C(Nc2nc3ccc(F)cc3o2)N1 (stereo not drawn) [Compound 71, 2-(4-(2-chloro-4-(2-methylpyrimidin-5-yl)phenyl)-2-((6-fluorobenzo[d]oxazol-2-yl)amino)-6-methyl-1,4-dihydropyrimidine-5-carboxamido)isonicotinic acid]		0.11	0.69	0.69	>90	>30	<1 1 × 10^−6 cm/sec
CC1=C(C(=O)Nc2cc(C(=O)O)ccn2)C(c2cc(C(=O)O)ccc2Cl)N=C(Nc2nc3ccc(F)cc3o2)N1 (stereo not drawn) [Compound 73, 2-(4-(5-carboxy-2-chlorophenyl)-2-((6-fluorobenzo[d]oxazol-2-yl)amino)-6-methyl-1,4-dihydropyrimidine-5-carboxamido)isonicotinic acid]	1.72	1.72	12.2	12.2	>83	>30	2.85 1 × 10^−6 cm/sec
CC1=C(C(=O)Nc2cc(C(=O)O)ccn2)C(c2ccc(-n3ccnc3)cc2Cl)N=C(Nc2nc3ccc(F)cc3o2)N1 (stereo not drawn) [Compound 74, 2-(4-(2-chloro-4-(1H-imidazol-1-yl)phenyl)-2-((6-fluorobenzo[d]oxazol-2-yl)amino)-6-methyl-1,4-dihydropyrimidine-5-carboxaido)isonicotinic acid]		0.12		0.97	>87	>30	<1 1 × 10^−6 cm/sec
CC1=C(C(=O)Nc2ccccn2)C(c2ccccc2Cl)N=C(Nc2nc3cccc(N)c3o2)N1 (stereo not drawn) [Compound 81, 2-((7-aminobenzo[d]oxazol-2-yl)amino)-4-(2-chlorophenyl)-6-methyl-N-(pyridin-2-yl)-1,4-dihydropyrimidine-5-carboxamide]		3.43		19.3	<1	>30	271.13 1 × 10^−6 cm/sec
